IC50 data for one molecule are collected here from PMC8387799, “Inhibition Effect of Extract of Psychotria viridiflora Stem on α-Amylase and α-Glucosidase and Its Application in Lowering the Digestibility of Noodles” (Frontiers in Nutrition, 2021).

Values after ≈ are worked out from the molar mass of the structure shown.

The test system of this assay is T1, rat intestinal α-glucosidase.
T1 construct: gene Mgam; native; supernatant of PBS extract of commercial rat intestinal powder (crude mixture of brush-border glucosidases)
In words: turbidity ([…] nm) of corn starch hydrolysis, AUC, microplate. In kind it is biochemical. The conditions noted are these: corn starch substrate; PBS, 37 °C preincubation 15 min.

In the case of `C[C@H]1O[C@H](O[C@H]2[C@H](O)[C@@H](O)[C@@H](O[C@H]3[C@H](O)[C@@H](O)C(O)O[C@@H]3CO)O[C@@H]2CO)[C@H](O)[C@@H](O)[C@@H]1N[C@H]1C=C(CO)[C@@H](O)[C@H](O)[C@H]1O` (stereo partly shown) [acarbose], the IC50 was found to be 2.27 ± 1.35 µg/mL (≈ 3.52 µM).
